From paper PMC7364574 (ACS Omega, 2020)

What was measured:
[1] = molecular target: c-Met kinase (Homo sapiens, UniProt P08581); test: c-Met tyrosine kinase mobility shift assay; assay type: biochemical; details: IC50 (μM) c-Met
[2] = tested on: A549 cells; test: Cell cycle distribution analysis by flow cytometry; assay type: cell-based; details: 24 h, control 56.06%
[3] = tested on: A549 cells; test: Apoptosis analysis by flow cytometry; assay type: cell-based; details: 24 h, control 5.16%
[4] = tested on: A549 cells; test: Acridine orange; assay type: cell-based; details: A549, 0.50 μM, 8 h

Chain of c-Met kinase (P08581 25-1390): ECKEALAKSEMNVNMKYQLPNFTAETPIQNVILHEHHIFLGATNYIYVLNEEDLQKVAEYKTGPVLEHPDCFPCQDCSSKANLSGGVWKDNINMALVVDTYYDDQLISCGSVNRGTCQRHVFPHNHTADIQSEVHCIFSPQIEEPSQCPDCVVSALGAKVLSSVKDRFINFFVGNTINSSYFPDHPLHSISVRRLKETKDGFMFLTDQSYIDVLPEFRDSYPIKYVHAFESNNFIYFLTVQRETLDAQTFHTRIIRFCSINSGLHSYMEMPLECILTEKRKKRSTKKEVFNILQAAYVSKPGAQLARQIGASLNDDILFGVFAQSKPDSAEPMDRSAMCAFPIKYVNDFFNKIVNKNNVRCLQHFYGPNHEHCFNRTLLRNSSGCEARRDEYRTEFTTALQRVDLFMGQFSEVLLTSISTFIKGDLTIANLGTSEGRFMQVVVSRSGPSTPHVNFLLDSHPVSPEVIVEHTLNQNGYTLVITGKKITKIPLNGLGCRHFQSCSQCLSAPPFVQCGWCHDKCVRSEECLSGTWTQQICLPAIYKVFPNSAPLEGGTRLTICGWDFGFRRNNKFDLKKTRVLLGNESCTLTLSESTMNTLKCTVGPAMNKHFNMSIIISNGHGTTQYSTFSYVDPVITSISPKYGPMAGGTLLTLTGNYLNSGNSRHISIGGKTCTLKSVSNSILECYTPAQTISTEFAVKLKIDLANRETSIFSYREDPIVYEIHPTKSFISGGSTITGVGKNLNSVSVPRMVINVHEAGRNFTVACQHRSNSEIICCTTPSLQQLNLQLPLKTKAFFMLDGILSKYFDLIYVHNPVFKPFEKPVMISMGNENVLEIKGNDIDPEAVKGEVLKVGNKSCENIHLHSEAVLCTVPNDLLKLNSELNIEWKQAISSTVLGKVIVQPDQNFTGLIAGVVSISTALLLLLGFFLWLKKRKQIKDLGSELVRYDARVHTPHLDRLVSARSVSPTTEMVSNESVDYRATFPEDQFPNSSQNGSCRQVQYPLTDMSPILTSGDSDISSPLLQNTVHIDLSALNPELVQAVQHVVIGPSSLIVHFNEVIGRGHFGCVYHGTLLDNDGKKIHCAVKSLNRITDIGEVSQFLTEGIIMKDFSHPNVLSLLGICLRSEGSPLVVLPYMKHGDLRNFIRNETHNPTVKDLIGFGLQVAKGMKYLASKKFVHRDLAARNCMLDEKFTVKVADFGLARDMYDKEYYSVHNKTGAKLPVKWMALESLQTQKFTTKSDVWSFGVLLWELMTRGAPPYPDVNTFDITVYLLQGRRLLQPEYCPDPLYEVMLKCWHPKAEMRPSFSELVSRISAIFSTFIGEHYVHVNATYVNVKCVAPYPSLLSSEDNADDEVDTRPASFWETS

Cc1cc(Oc2ccc(NC(=O)c3cnn(-c4ccc(Cl)cc4)c3C(F)(F)F)cc2F)c2nncn2n1 [13b, 1-(4-Chlorophenyl)-N-(3-fluoro-4-((6-methyl-[1,2,4]triazolo[4,3-b]pyridazin-8-yl)oxy)phenyl)-5-(trifluoromethyl)-1H-pyrazole-4-carboxamide] was tested, and the IC50 [1] was 0.09 to 0.21 µM.

With Cc1cc(Oc2ccc(NC(=O)c3sc(-c4ccccn4)nc3C)cc2)c2nncn2n1 [12e, 4-Methyl-N-(4-((6-methyl-[1,2,4]triazolo[4,3-b]pyridazin-8-yl)oxy)phenyl)-2-(pyridin-2-yl)thiazole-5-carboxamide] the G0/G1 phase population ([2]; A549, 3.75 μM) was 60.25%, the G0/G1 phase population ([2]; A549, 7.50 μM) was 66.32% and the G0/G1 phase population ([2]; A549, 15.00 μM) was 76.84%. For the same compound, the total apoptosis rate ([3]; A549, 3.75 μM) was 13.73%, the total apoptosis rate ([3]; A549, 7.50 μM) was 24.87% and the total apoptosis rate ([3]; A549, 15.00 μM) was 35.87%. The IC50 [1] was 0.09 to 0.21 µM and the “induction of apoptosis, AO staining” value [4] was “significant effect on inducing apoptosis”.
